For series [1], the system named is A2780 xenograft. Briefly: A2780 xenograft tumor model. More on the design: species or system mice. Conditions: mouse, in vivo. The method, then: Drugs. Compounds of the invention were synthesized and prepared for i.v. administration in a biocompatible vehicle. CPT-11 (Camptosar®, Pharmacia) was obtained as the pharmaceutical drug and was prepared in 5% dextrose-water (D5W). All preparations were made fresh weekly and injection volumes were adjusted to body weight (0.2 ml/20 g mouse).
Mice/Husbandry. Female nu/nu mice were obtained from Charles River, housed in static microisolators, and provided ad libitum with water and an irradiated standard rodent diet (Purina Pico-Lab Rodent Diet 20).
Standard Protocol. […] Animals were initially monitored twice weekly for tumor growth and then daily as the implants approached the desired size of approximately 100 mm^3. When the tumors grew to between 62-221 mg in calculated tumor weight, the animals were pair-matched into appropriate experimental treatment groups (8-10 animals/group) and treatment with test compounds was initiated. […] Tumor weights were calculated and body weights were taken twice weekly and animals were observed frequently for adverse drug effects. […]
Tumors were measured by determining the length and width of the tumor with a digital caliper. […]
Log cell kill (LCK) is a calculation that determines the percentage of tumor cells that are killed after the initiation of treatment and can be used as a quantitative measure of efficacy: […]

Series [2] can be described thus: MTD/toxicity study in rats. In kind it is in vivo. Conditions: 50-80 mg/kg i/v, QDx5/2/5 schedule. The protocol: A similar scheme can also be employed in experimental rats and other animals. For example, to determine MTD in rats, 50-80 mg/kg of A37 was dosed i/v in a QDx5/2/5 schedule.
Series [3] has as its system HT29/mit. Briefly: SRB cytotoxicity, mitoxanthrone resistant cells. The class given is cell-based, human. The method, then: In these experiments, the P-glycoprotein expressing NCI-Adr resistant subline (Vickers et al., 1989. Mol Endocrinology 3 (1):157-164) was used. […] Briefly, cells were plated in 96 well dishes 24 hours prior to compound addition. Where noted, they were exposed to verapamil for 4 hours prior to compound addition and then throughout the treatment period (72 hours). The assay was terminated with the addition of cold TCA to a final concentration of 10% and the plates were incubated for one hour at 4° C. The plates were then washed 5 times with water and 100 μl of a Sulforhodamine B solution (4%) was added to each well. The plate was then incubated for 10 minutes at room temperature before removal of unbound dye by washing with 1% acetic acid. The bound dye was solubilized with 10 mM Trizma base and the absorbance read at OD570.
The parental non-mutated cell line HT29 was used as a control.
Z. Cytotoxicity was measured using the SRB assay according to Shekan et al. as described above in Example 1A.

The subject of series [4] is quiescent tumor cells. Briefly: Activity on quiescent tumor cells. In kind it is cell-based.
The nature of series [5]: Maximum tolerated dose in mice. Conditions: mouse, in vivo, intravenous. The method, then: Determination of maximum tolerated dose (MTD). Mice at 8 weeks of age were pair-matched into groups of 5-8 animals and preliminary toxicity studies were performed with unknown test compounds. Animals were treated i.v. daily for 10 consecutive days with test compound and were weighed twice weekly. Mice were examined frequently for clinical signs of any adverse drug-related effects. Acceptable toxicity for anti-cancer drugs in mice is defined by the NCl as no mean group weight loss of over 20% and not more than 10% toxic death in treated animals.

Series [6] deals with normal cells. Briefly: Activity on normal cells. The class given is cell-based.

SMILES strings stand for the structures. Counter-ions that a name gives are not always drawn. Like-named read-outs stand apart in the source and are kept apart here.

Take `CC(C)N1CCN(C(=O)COc2ccc(-c3n[nH]c4c3C(=O)c3c(NC(=O)NN5CCOCC5)cccc3-4)cc2)CC1` [Compound A37]: the “efficacy in A2780 xenograft tumor model” value in series [1] is “high efficacy”. The cardiotoxicity result in series [2] was “did not induce cardiotoxicity”.
For `COCCN1CCN(Cc2ccc(-c3n[nH]c4c3C(=O)c3c(NC(=O)NN5CCOCC5)cccc3-4)cc2)CC1` [Compound B16, N-[3-(4-{[4-(2-methoxyethyl)piperazinyl]methyl}phenyl)-4-oxoindeno[2,3-d]pyrazol-5-yl](morpholin-4-ylamino)carboxamide dihydrochloride], the “RR (relative resistance) HT29/mit vs HT29” value in series [3] turned out to be 22.1. Also, the IC50 (as a rule, the concentration that gives 50% inhibition) in series [3] (Homo sapiens, HT-29, 72 h, SRB) turned out to be 1700 nM; in series [4] it was 11 nM; in series [6], 10900 nM. The MTD in series [5] (CD-1 mice, read-out: MTD, 5/2/5 dose) is 40 mg/kg; in series [5] (nu/nu mice, read-out: MTD, single dose) it was roughly 120 mg/kg. The compound also had an MTD at 5 days in series [5] (nu/nu mice) of roughly 100 mg/kg.

(Values after patent US20080146555A1, “Uses of Kinase Inhibitors and Compositions Thereof” (GPC Biotech, Inc, priority 2004, published 2008).)
